Measured values taken from ChEMBL document CHEMBL1201862, “PubChem BioAssay data set” (2004).
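Compound exposure: 48 hours, 5 concentrations, 96-well plates. At the GI50, growth is halved.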 Active and inactive are the calls of the source. Cut-off read from the data, not from the text of the source: active = GI50 up to about 1.1 µM and inactive = higher.

What was measured:
Assay in all cases: DTP human tumour cell line panel, 48 h
A498 = system: A498
OVCAR-5 = system: OVCAR-5
ACHN = system: ACHN
DU-145 = system: DU-145
K562 = system: K562
PC-3 = system: PC-3
RPMI-8226 = system: RPMI-8226
SF-268 = system: SF-268
UACC-62 = system: UACC-62
OVCAR-8 = system: OVCAR-8
LOX IMVI = system: LOX IMVI
HT-29 = system: HT-29
HCT-15 = system: HCT-15
UACC-257 = system: UACC-257
MCF7 = system: MCF7
NCI-H522 = system: NCI-H522
Malme-3M = system: Malme-3M
MDA-MB-231 = system: MDA-MB-231
Hs-578T = system: Hs-578T
SNB-75 = system: SNB-75

Compound	GI50 (A498)	GI50 (OVCAR-5)	GI50 (ACHN)	GI50 (DU-145)	GI50 (K562)	GI50 (PC-3)	GI50 (RPMI-8226)	GI50 (SF-268)	GI50 (UACC-62)	GI50 (OVCAR-8)	GI50 (LOX IMVI)	GI50 (HT-29)	GI50 (HCT-15)	GI50 (UACC-257)	GI50 (MCF7)	GI50 (NCI-H522)	GI50 (Malme-3M)	GI50 (MDA-MB-231)	GI50 (Hs-578T)	GI50 (SNB-75)
Cc1nnc2sc(-c3ccc([N+](=O)[O-])o3)nn12	45.5 µM (inactive)	18.5 µM (inactive)	11.2 µM (inactive)	15 µM (inactive)	5.33 µM (inactive)	14.7 µM (inactive)	10.5 µM (inactive)	13.2 µM (inactive)	10.4 µM (inactive)	11.4 µM (inactive)	3.56 µM (inactive)	12.9 µM (inactive)	5.06 µM	12.7 µM (inactive)	7.18 µM (inactive)	3.03 µM (inactive)	4.08 µM (inactive)	14 µM (inactive)	30.3 µM (inactive)	
C=C(Br)C(Br)(CCl)CCC(Cl)C(C)C.C=C(Cl)C(Br)(CCl)CCC(Cl)C(C)C (configuration not stated)	17.7 µM (inactive)	2.84 µM (inactive)	1.74 µM (inactive)	1.65 µM (inactive)	0.684 µM (active)	2.91 µM (inactive)	0.208 µM (active)	1.75 µM (inactive)	1.31 µM (inactive)		0.299 µM (active)	1.41 µM (inactive)		1.67 µM (inactive)	1.94 µM (inactive)	1.35 µM (inactive)	2.49 µM (inactive)	1.24 µM (inactive)	2.49 µM (inactive)	0.889 µM (active)
CCCC/N=C(/c1ccccc1)N1CCOCC1	> 100 µM (inactive)	> 100 µM (inactive)	> 100 µM (inactive)	> 100 µM (inactive)	> 100 µM (inactive)	> 100 µM (inactive)	> 100 µM (inactive)	> 100 µM (inactive)	> 100 µM (inactive)	> 100 µM (inactive)	> 100 µM (inactive)	> 100 µM (inactive)	> 100 µM	> 100 µM (inactive)	> 100 µM (inactive)		57.9 µM (inactive)	> 100 µM (inactive)	87.1 µM (inactive)	1.25 µM (inactive)
Oc1c(OCc2nnc(CCCCCCCCc3nnc(COc4ccc5ccccc5c4O)n3Nc3ccccc3)n2Nc2ccccc2)ccc2ccccc12	16.1 µM (inactive)	5.47 µM (inactive)	0.845 µM (active)	14.6 µM (inactive)	0.515 µM (active)	2.1 µM (inactive)	0.682 µM (active)	10.7 µM (inactive)	0.671 µM (active)	11.2 µM (inactive)		8.28 µM (inactive)	11.4 µM	4.21 µM (inactive)	3.52 µM (inactive)	7.08 µM (inactive)	9.33 µM (inactive)	8.95 µM (inactive)	8.17 µM (inactive)	17.5 µM (inactive)
Nc1nc(Nc2ccc(Cl)cc2)sc1C(=O)c1cccs1	19.1 µM (inactive)	> 100 µM (inactive)	36.3 µM (inactive)	78.9 µM (inactive)		> 100 µM (inactive)	> 100 µM (inactive)	28.7 µM (inactive)	> 100 µM (inactive)		> 100 µM (inactive)	6.18 µM (inactive)	> 100 µM	> 100 µM (inactive)	33.4 µM (inactive)		99.3 µM (inactive)	40 µM (inactive)	15.2 µM (inactive)	
C1=CC2(C=CC13O[C@H](C1CCCCC1)[C@@H](C1CCCCC1)O3)O[C@H](C1CCCCC1)[C@@H](C1CCCCC1)O2	> 50 µM (inactive)	> 50 µM (inactive)	> 50 µM (inactive)	> 50 µM (inactive)	> 50 µM (inactive)	> 50 µM (inactive)	23.2 µM (inactive)	> 50 µM (inactive)	> 50 µM (inactive)	> 50 µM (inactive)	> 50 µM (inactive)	> 50 µM (inactive)	> 50 µM	> 50 µM (inactive)	> 50 µM (inactive)		> 50 µM (inactive)	> 50 µM (inactive)	> 50 µM (inactive)	> 50 µM (inactive)
COc1cc2c(cc1OC)C1CCc3ccccc3CN1CC2 (configuration not stated)	> 100 µM (inactive)	> 100 µM (inactive)	> 100 µM (inactive)	> 100 µM (inactive)	> 100 µM (inactive)	> 100 µM (inactive)		> 100 µM (inactive)	> 100 µM (inactive)	> 100 µM (inactive)	> 100 µM (inactive)	> 100 µM (inactive)	> 100 µM	> 100 µM (inactive)	> 100 µM (inactive)	> 100 µM (inactive)	> 100 µM (inactive)	> 100 µM (inactive)	> 100 µM (inactive)	> 100 µM (inactive)
CC(=O)NC1C(OCc2ccccc2)OC(CO)C(O)C1OC(C)C(=O)NC(C(=O)NC(CCC(=O)NCCCC(=O)Nc1ccc2c(c1)CN1C(=O)c3ccccc3C1=N2)C(N)=O)C(C)C (configuration not stated)	> 100 µM (inactive)	> 100 µM (inactive)	> 100 µM (inactive)	> 100 µM (inactive)	> 100 µM (inactive)	> 100 µM (inactive)	> 100 µM (inactive)	> 100 µM (inactive)	> 100 µM (inactive)		> 100 µM (inactive)	> 100 µM (inactive)	> 100 µM	> 100 µM (inactive)	> 100 µM (inactive)		> 100 µM (inactive)	> 100 µM (inactive)	> 100 µM (inactive)	> 100 µM (inactive)
